Assay results reported in patent US20040023884A1, “Biologically active peptides from functional domains of bactericidal/permeability-increasing protein and uses thereof” (priority 1993, published 2004).
Ends that are not written are not given here.

Experiments:
[1] = Heparin binding by tryptophan fluorescence quenching
Source text: The naturally-occurring amino acid tryptophan can emit light (i.e., it fluoresces) having a wavelength between 300 and 400 nm after excitation with light having a wavelength of between about 280 nm and 290 nm, preferably 285 nm. The amount of emitted light produced by such fluorescence is known to be affected by the local environment, including pH and buffer conditions, as well as binding interactions between proteins and other molecules. Some BPI functional domain peptides derived from domains II and III contain tryptophan residues, and tryptophan fluorescence was used to assay binding interactions between the BPI functional domain peptides of the invention and LPS or heparin.
Tryptophan fluorescence of the BPI functional domain peptides of the invention was determined in the presence or absence of LPS or heparin using a SPEX Fluorolog fluorimeter. Samples were excited with 285 nm light using a 0.25 nm slitwidth. Emission wavelengths were scanned between 300-400 nm using a 1.25 nm slitwidth. Data were accumulated as the average of three determinations performed over an approximately 5 min time span. Samples were maintained at 25° C. or 37° C. during the course of the experiments using a circulating water bath. Crab endotoxin binding protein (CEBP), a protein wherein the intrinsic fluorescence of tryptophan residues is affected by binding to LPS, was used as a positive control. (See Wainwright et al., 1990, Cellular and Molecular Aspects of Endotoxin Reactions, Nowotny et al., eds., Elsevier Science Publishing B.V., The Netherlands, pp. 315-325).
Kd values were determined by Scatchard-type Stern-Volmer plots of the quenching data as the negative inverse of the slope of such plots. Comparing the data for BPI.10, BPI.46 and BPI.47, it is seen that as the Kd decreased (indicating an increase in avidity for LPS), the percent fluorescence quenching increased. The differences between these peptides include replacement of basic and polar amino acid residues with non-polar residues in […] as compared with BPI.10. In contrast, as the Kd of heparin binding decreased, a corresponding increase in the percentage of fluorescence quenching was not detected.

Salmonella typhurium = experiment: Radial diffusion bactericidal assay, Salmonella typhurium; assay type: cell-based; conditions: FIG. 11h
E. coli O86a:K61 = experiment: Broth bactericidal assay, E. coli O86a:K61; assay type: cell-based; conditions: FIG. 11j

Substance | Quenching Heparin [1] [%] | Kd ([1]; Stern-Volmer plots) [nM] | bactericidal activity (in words) (Salmonella typhurium) | bactericidal activity (in words) (E. coli O86a:K61)
KWKAAARFLKKWKAAARFLK [BPI.48] | 41 | 800 |  | 
KWKAQKRFLKKSKVGWLIQLFHKK-NH2 (C-terminus assumed) [BPI.30] |  |  | showed bactericidal activity | showed bactericidal activity
